Results published in patent US6127380A, “4-aminoalkoxy-1H-benzoimidazoles” (American Home Products Corporation, priority 1998, dated 2000).
Where two headings read alike, the source gives them in different places.

How the values were obtained:
dopamine D-2 receptor = molecular target: T1, dopamine D-2 receptor (Rattus norvegicus, UniProt P61169); assay: Affinity for the dopamine D-2 receptor, 3H-spiroperidol binding in homogenized limbic brain tissue (D2 Spiper); details: for Ratio: IC50 D2 Spiper / IC50 D2 Quin. (LowAg/HighAg, predicts intrinsic activity)
T1 construct: from tissue; host or cells: limbic brain tissue, homogenate
T1 sequence (P61169 whole entry): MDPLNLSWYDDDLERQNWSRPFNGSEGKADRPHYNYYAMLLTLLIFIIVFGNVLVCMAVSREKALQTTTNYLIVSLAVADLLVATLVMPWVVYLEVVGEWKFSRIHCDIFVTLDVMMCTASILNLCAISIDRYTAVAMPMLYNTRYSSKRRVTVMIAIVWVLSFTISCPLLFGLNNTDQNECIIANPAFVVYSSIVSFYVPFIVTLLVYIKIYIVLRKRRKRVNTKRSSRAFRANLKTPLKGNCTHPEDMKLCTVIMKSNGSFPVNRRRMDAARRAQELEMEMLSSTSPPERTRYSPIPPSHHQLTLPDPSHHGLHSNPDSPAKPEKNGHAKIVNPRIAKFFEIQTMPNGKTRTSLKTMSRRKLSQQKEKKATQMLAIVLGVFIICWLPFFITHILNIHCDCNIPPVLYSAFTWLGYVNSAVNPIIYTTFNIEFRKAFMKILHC
Procedure: High affinity for the dopamine D-2 receptor was established by the standard experimental test procedure of Fields, et al., Brain Res., 136, 578 (1977) and Yamamura et al., eds., Neurotransmitter Receptor Binding, Raven Press, N.Y. (1978) wherein homogenized limbic brain tissue is incubated with ^3 H-spiroperidol (Spiper.) and various concentrations of test compound, filtered and washed and shaken with Hydrofluor scintillation cocktail (National Diagnostics) and counted in a Packard 460 CD scintillation counter.

[1] = molecular target: T2, dopamine autoreceptor (D2) (Rattus norvegicus, UniProt P61169); assay: Affinity for the dopamine autoreceptor, 3H-quinpirole binding in homogenized rat striatal brain tissue (D2 Quin.)
T2 construct: homogenized rat striatal brain tissue; from tissue; host or cells: rat striatum, homogenate
T2 sequence (P61169 whole entry): as above
Procedure: Affinity for the dopamine autoreceptor was established by a modification of the standard experimental test procedure of Seemen and Schaus, European Journal of Pharmacology 203: 105-109, 1991, wherein homogenized rat striatal brain tissue is incubated with ^3 H-quinpirole (Quin.) and various concentrations of test compound, filtered and washed and counted in a Betaplate scintillation counter.

[2] = 3H-spiroperidol, homogenized limbic brain tissue, read-out: IC50 (nM) D2 Spiper
[3] = 3H-quinpirole, homogenized rat striatal brain tissue, read-out: IC50 (nM) D2 Quin.

Compound | IC50 (dopamine D-2 receptor; [2]) | Ratio (dopamine D-2 receptor) | IC50 [1, 3] | IC50 (dopamine D-2 receptor) | IC50 [1]
Fc1ccc(CNCCOc2cccc3[nH]c(C(F)(F)F)nc23)cc1 [Example 16, (4-Fluoro-benzyl)-2[2-(2-trifluoromethyl-1H-benzoimidazol-4-yloxy)-ethyl]-amine] | 49 nM | 66.2 | 0.74 nM |  | 
Cc1ccc(CNCCOc2cccc3[nH]c(C(F)(F)F)nc23)cc1 [Example 4, (4-Methyl-benzyl)-[2-(2-trifluoromethyl-1H-benzoimidazol-4-yloxy)-ethyl]-amine] | 29.9 nM | 40.4 | 0.74 nM |  | 
FC(F)(F)C(F)(F)c1nc2c(OCCNCc3ccccc3)cccc2[nH]1 [Example 9, Benzyl-{2-[2-(1,1,2,2,2-pentafluoro-ethyl)-1H-benzoimidazol-4-yloxy]-ethyl}-amine] | 41.9 nM | 29.7 | 1.41 nM |  | 
FC(F)(F)c1nc2c(OCCNCc3cccs3)cccc2[nH]1 [Example 7, Thiophen-2-ylmethyl-[2-(2-trifluoromethyl-1H-benzoimidazol-4-yloxy)-ethyl]-amine] | 37.4 nM | 36.3 | 1.03 nM |  | 
FC(F)(F)c1nc2c(OCCNCc3ccccc3)cc(Cl)cc2[nH]1 [Example 14, Benzyl-[2-(6-chloro-2-trifluoromethyl-1H-benzoimidazol-4-yloxy)-ethyl]-amine] | 151 nM | 106 | 1.42 nM |  | 
c1csc(CNCCOc2cccc3[nH]cnc23)c1 [Example 11, Thiophen-2-ylmethyl-[2-(1H-benzoimidazol-4-yloxy)-ethyl]-amine] |  |  | 52.8 nM |  | 
Cc1ccc(CNCCOc2cccc3[nH]c(C(F)(F)C(F)(F)C(F)(F)F)nc23)cc1 [Example 12, (4-Methyl-benzyl)-{2-[2-(1,1,2,2,3,3,3-heptafluoro-propyl)-1H-benzoimidazol-4-yloxy]-ethyl}-amine] |  | 23.0 |  | 118 nM | 5.12 nM
FC(F)(F)c1nc2c(OCCNCc3cccc4ccccc34)cccc2[nH]1 [Example 10, Naphthalen-1-ylmethyl-[2-(2-trifluoromethyl-1H-benzoimidazol-4-yloxy]-ethyl]-amine] | 81.5 nM | 94.8 | 0.86 nM |  | 
c1ccc(CNCCOc2cccc3nc[nH]c23)cc1 [Example 1, [2-(1H-Benzoimidazol-4-yloxy)-ethyl]-benzyl-amine] |  |  | 26.7 nM |  | 
FC(F)(F)c1nc2c(OCCN3CCc4ccccc4C3)cccc2[nH]1 [Example 13] | 314 nM | 39.4 | 8 nM |  | 
Cc1nc2c(OCCNCc3ccccc3)cccc2[nH]1 [Example 2, Benzyl-[2-(2-methyl-1H-benzoimidazol-4-yloxy)-ethyl]-amine] | 339 nM | 38.3 | 8.85 nM |  | 
FC(F)(F)c1nc2c(OCCCNCc3ccccc3)cccc2[nH]1 [Example 8, Benzyl-[3-(2-trifluoromethyl-1H-benzoimidazol-4-yloxy)-propyl]-amine] | 1460 nM | 16.8 | 86.8 nM |  | 
FC(F)(F)c1ccc(CNCCOc2cccc3[nH]c(C(F)(F)F)nc23)cc1 [Example 17, [2-(2-Trifluoromethyl-1H-benzoimidazol-4-yloxy)-ethyl]-(4-trifluoromethyl-benzyl)-amine] | 87 nM | 75.0 | 1.16 nM |  | 
Cc1ccc(CNCCOc2cccc3[nH]c(C(F)(F)C(F)(F)F)nc23)cc1 [Example 6, (4-Methyl-benzyl)-{2-[2-(1,1,2,2,2-pentafluoro-ethyl)-1H-benzoimidazol-4-yloxy]-ethyl}-amine] | 66.5 nM | 46.2 | 1.44 nM |  | 
FC(F)(F)c1nc2c(OCCNCc3ccc(Cl)cc3)cc(Cl)cc2[nH]1 [Example 15, 4-Chloro-benzyl-[2-(6-chloro-2-trifluoromethyl-1H-benzoimidazol-4-yloxy)-ethyl]-amine] | 395 nM | 50.8 | 7.77 nM |  | 
FC(F)(F)c1nc2c(OCCNCCCc3ccccc3)cccc2[nH]1 [Example 18, (3-Phenyl-propyl)-[2-(2-trifluoromethyl-1H-benzoimidazol-4-yloxy)-ethyl]-amine] |  |  | 0.56 nM |  | 
Cc1ccc(CNCCOc2cccc3[nH]c(Cc4ccccc4)nc23)cc1 [Example 5, [2-(2-Benzyl-1H-benzoimidazol-4-yloxy)-ethyl]-(4-methyl-benzyl)-amine] | 2160 nM | 39.4 | 54.8 nM |  | 
FC(F)(F)c1nc2c(OCCNCc3ccccc3)cccc2[nH]1 [Example 3, Benzyl-[2-(2-trifluoromethyl-1H-benzoimidazol-4-yloxy)-ethyl]-amine] | 23.7 nM | 65.8 | 0.36 nM |  | 
